According to US20120225889A1, “USE OF MACROCYCLIC LACTONE DERIVATIVES FOR THE TREATMENT OF INFLAMMATORY DISORDERS” (PIRAMAL LIFE SCIENCES LIMITED, priority 2010, published 2012):

Tests used:
IL-6 = test: hPBMC membrane-monocyte contact bioassay: IL-6; assay type: cell-based; conditions: Homo sapiens, monocytes, 24 h, read-out: inhibition of activated hPBMC mediated IL-6 production
Excerpt: The assay was designed as in reference, Immunology Letters, 117, 114-118, (2008), the disclosure of which is incorporated by reference for the teaching of the assay. Activated T cell contact-mediated monocyte activation, leading to the production of proinflammatory cytokines (e.g., TNF-α, IL-6), contributes to the pathogenesis of chronic inflammatory diseases including rheumatoid arthritis.
6-well plates (Nunc, USA) were coated with Goat anti-Mouse IgG, Fc (Chemicon, USA) at a concentration of 16.5 μL/mL in coating buffer ([…] NaHCO3, 3.56 g Na2CO3, pH 9.5).
The plates were incubated overnight at 4° C. under sterile conditions. […]
Following incubation, hPBMCs in separate wells of the 6-well plate were harvested, pooled together, and centrifuged. […] The pellet of hPBMC membranes was resuspended in lysis buffer (Sigma, USA) and the protein concentration was determined by the method of Bradford (Sigma, USA).
100 μL monocytes per well at 5×10^5 cells/mL were added to the 96-well plate (Nunc, USA) and cultured for 48 h at 37° C. […] Supernatants were collected after 24 h and TNF-α and IL-6 production was measured using OptiEIA ELISA sets, (BD BioSciences, USA). […]

TNF-α = test: Human monocyte assay (LPS-induced): TNF-α; assay type: cell-based; conditions: LPS stimulated human monocytes, 5 h
Excerpt: The assay was designed as in reference, Physiological Research, 52, 593-598, (2003), the disclosure of which is incorporated by reference for the teaching of the assay.
The objective of the assay is to determine whether compounds of the present invention—mediated inhibition of LPS-induced cytokines from monocytic THP-1 cell line translates to physiologically relevant human cells. Accordingly, the effect of compounds of the present invention on LPS—induced cytokine production from freshly isolated human monocytes was ascertained.
Peripheral blood was collected from healthy donors into potassium EDTA vacutainer tubes (BD Biosciences, USA). hPBMCs were isolated using density gradient separation (Histopaque-1077; Sigma, USA) and suspended in assay medium which is RPMI culture medium (Sigma, USA) containing 10% heat inactivated FBS (JRH Biosciences, Australia), 100 U/mL penicillin (Sigma, USA) and […] streptomycin (Sigma, USA). Monocytes in the hPBMCs were counted using a Coulter Counter following which the cells were resuspended at 2×10^5 monocytes/mL of assay medium. A cell suspension containing 2×10^4 monocytes was aliquoted per well of a 96-well plate (Nunc, USA). Subsequently, the hPBMCs were incubated for 4-5 h at 37° C., 5% CO2. […] The IC50 values were calculated by a nonlinear regression method using Graph Pad software (Prism 3.03).

C/C=C/C(O)C(C)/C=C/C(=N\O)C(C)C(O)C(C)C1OC(=O)/C(OC)=C/C(C)=C/C(C)C(O)C(CC)C(O)C(C)C/C(C)=C/C=C/C1OC (stereo not drawn) [Compound of example 7, (3Z,5E,13E,15E)-18-((5Z,6E,10E)-3,9-Dihydroxy-5-(hydroxymino)-4,8-dimethyldodeca-6,10-dien-2-yl)-9-ethyl-8,10-dihydroxy-3,17-dimethoxy-5,7,11,13-tetramethyl oxacyclooctadeca-3,5,13,15-tetraen-2-one]
inhibition at 0.3 µM (IL-6; at 0.3 μM): 66% | inhibition at 0.5 µM (IL-6; at 0.5 μM): 100% | IC50 (TNF-α): 10 µM
